According to US9890152B2 (Genentech, Inc., priority 2012, dated 2018):
“And” between values parts separate entries of the source, which are not always exact repeats. Identical values can stand only once.

These compounds were tested against T1, EGFR del746-750 T790M (Homo sapiens, UniProt P00533, DEL746-750/T790M) (assay: EGFR del746-750 T790M biochemical assay (Caliper mobility shift)). Details: 5 μM ATP, 30 min, room temperature; apparent Ki (Morrison) converted by Cheng-Prusoff, Km of ATP 2.1 μM; read-out: EGFR(T790M/d746-750) Ki.
T1 construct: purchased Carna Biosciences 08-528
T1 sequence (P00533 with tags, fused parts or gaps DEL746-750/T790M limits assumed): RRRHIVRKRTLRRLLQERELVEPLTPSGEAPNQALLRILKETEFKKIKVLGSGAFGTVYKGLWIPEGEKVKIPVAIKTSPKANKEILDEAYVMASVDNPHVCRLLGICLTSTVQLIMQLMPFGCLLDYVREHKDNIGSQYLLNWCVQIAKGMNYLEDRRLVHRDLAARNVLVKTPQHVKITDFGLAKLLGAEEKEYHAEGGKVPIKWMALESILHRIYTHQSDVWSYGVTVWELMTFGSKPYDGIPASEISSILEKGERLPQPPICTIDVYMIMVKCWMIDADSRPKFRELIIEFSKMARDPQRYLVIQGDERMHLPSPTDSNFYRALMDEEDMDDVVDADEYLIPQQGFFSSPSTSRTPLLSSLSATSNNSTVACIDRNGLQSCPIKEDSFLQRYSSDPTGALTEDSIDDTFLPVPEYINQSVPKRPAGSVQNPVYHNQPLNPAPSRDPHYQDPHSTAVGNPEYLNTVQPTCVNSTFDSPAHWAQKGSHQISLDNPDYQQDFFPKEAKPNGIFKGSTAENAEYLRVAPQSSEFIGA

| SMILES | Ki |
| --- | --- |
| CC(C)n1c(CO)nc2cnc(Nc3ccnc(N4C[C@@H](F)[C@@H](O)C(C)(C)C4)n3)cc21 [Example 650] | 92 nM and 20 nM |
| Cc1nc2cnc(Nc3ccnc(N4CCc5cn[nH]c5C4)n3)cc2n1C(C)C [Example 651] | 9.14 nM |
| Cc1nc2cnc(Nc3ccnc(NCC4CCS(=O)(=O)C4)n3)cc2n1C(C)C (stereo not drawn) [Example 652] | 1160 nM |
| Cc1nc2cnc(Nc3ccnc(N4CCC5(OCCO5)C(F)C4)n3)cc2n1C(C)C (stereo not drawn) [Example 653] | 34.3 nM |
| CC(C)n1c(CO)nc2cnc(Nc3ccnc(N4CCC5(OCCO5)C(F)C4)n3)cc21 (stereo not drawn) [Example 654] | 36 nM |
| CO[C@H]1CCN(c2nccc(Nc3cc4c(cn3)nc(CO)n4C(C)C)n2)C[C@H]1F [Example 655] | 60.8 nM |
| Cc1nc2cnc(Nc3ccnc(OCC(C)(C)S(C)(=O)=O)n3)cc2n1C(C)C [Example 656] | 214 nM |
| CO[C@@H]1CCN(c2nccc(Nc3cc4c(cn3)nc(CO)n4[C@@H](C)C(F)(F)F)n2)C[C@@H]1F [Example 657] | 17.4 nM |
| CC(C)n1c([C@@H](C)O)nc2cnc(Nc3ccnc(N4CC[C@@H](O)[C@@H](F)C4)n3)cc21 [Example 658] | 44.3 nM |
| CO[C@@H]1CCN(c2nccc(Nc3cc4c(cn3)nc([C@@H](C)O)n4C(C)C)n2)C[C@@H]1F [Example 659] | 39.3 nM |
| CC(C)n1c(CO)nc2cnc(Nc3ccnc(OCC(C)(C)S(C)(=O)=O)n3)cc21 [Example 660] | 171 nM |
| CC(C)n1c(CO)nc2cnc(Nc3ccnc(N4CCC(S(C)(=O)=O)CC4)n3)cc21 [Example 661] | 900 nM |
| C[C@H](n1c([C@@H](C)O)nc2cnc(Nc3ccnc(N4CCC(S(C)(=O)=O)CC4)n3)cc21)C(F)(F)F [Example 662] | 68.4 nM |
| C[C@H](n1c([C@@H](C)O)nc2cnc(Nc3ccnc(NCC(C)(C)S(C)(=O)=O)n3)cc21)C(F)(F)F [Example 663] | 14.5 nM |
| CC(C)n1cc(C(=O)NC2CCOCC2)c2cnc(Nc3ccnc(NCC(C)(C)S(C)(=O)=O)n3)cc21 [Example 664] | 5.68 nM |
| COC1(CO)CCN(c2nccc(Nc3cc4c(cn3)nc([C@@H](C)O)n4[C@@H](C)C(F)(F)F)n2)CC1 [Example 665] | 11.5 nM |
| C[C@H](n1c(CO)nc2cnc(Nc3ccnc(N4CC[C@@H](O)[C@@H](F)C4)n3)cc21)C(F)(F)F [Example 666] | 7.26 nM |
| C[C@H](n1c(CO)nc2cnc(Nc3ccnc(N4CC[C@H](O)[C@H](F)C4)n3)cc21)C(F)(F)F [Example 667] | 5.65 nM |
| CC(C)n1c(CO)nc2cnc(Nc3ccnc(N4CCCCC4CCO)n3)cc21 (stereo not drawn) [Example 668] | 451 nM |
| CC(C)n1c(CO)nc2cnc(Nc3ccnc(N4CCC(O)(C(F)(F)F)CC4)n3)cc21 [Example 669] | 234 nM |
| CC(C)n1c(CO)nc2cnc(Nc3ccnc(N4CCCCC4CO)n3)cc21 (stereo not drawn) [Example 670] | 273 nM |
| CCc1ncc(-c2nccc(Nc3cc4c(cn3)nc(CO)n4C(C)C)n2)s1 [Example 671] | 12.6 nM |
| Cc1nc2cnc(Nc3ccnc(N4CC[C@](C)(O)[C@H](F)C4)n3)cc2n1C(C)C [Example 672] | 135 nM |
| CO[C@@]1(C)CCN(c2nccc(Nc3cc4c(cn3)nc(C)n4C(C)C)n2)C[C@H]1F [Example 673] | 97.1 nM |
| Cc1nc2cnc(Nc3ccnc(N4CC[C@@](C)(O)[C@H](F)C4)n3)cc2n1C(C)C [Example 674] | 73 nM |
| CC(C)n1c(CO)nc2cnc(Nc3ccnc(N4CC[C@@](C)(O)[C@H](F)C4)n3)cc21 [Example 675] | 112 nM |
| C[C@H](n1c([C@@H](C)O)nc2cnc(Nc3ccnc(N4CC[C@](C)(O)[C@H](F)C4)n3)cc21)C(F)(F)F [Example 676] | 8.18 nM |

Further lines, results first:

| Ki | SMILES |
| --- | --- |
| 200 nM | Cc1nc2cnc(Nc3ccnc(N4CC[C@@H](C#N)C4)n3)cc2n1C(C)C [Example 678] |
| 168 nM | Cc1nc2cnc(Nc3ccnc(N4CC[C@H](C#N)C4)n3)cc2n1C(C)C [Example 679] |
| 395 nM | Cc1nc2cnc(Nc3ccnc(N4CC[C@@H](O)C4)n3)cc2n1C(C)C [Example 680] |
| 189 nM | Cc1nc2cnc(Nc3ccnc(N4CC[C@H](O)C4)n3)cc2n1C(C)C [Example 681] |
| 135 nM | Cc1nc2cnc(Nc3ccnc(N4CCC(C)(O)CC4)n3)cc2n1C(C)C [Example 682] |
| 13.2 nM | C[C@H](n1c([C@@H](C)O)nc2cnc(Nc3ccnc(N4CCC(C)(O)CC4)n3)cc21)C(F)(F)F [Example 683] |
| 7.67 nM | CO[C@H]1CCN(c2nccc(Nc3cc4c(cn3)nc([C@H](C)O)n4[C@@H](C)C(F)(F)F)n2)C[C@H]1F [Example 684] |
| 26.6 nM | C[C@H](O)c1nc2cnc(Nc3ccnc(N4CC[C@@H](O)[C@@H](F)C4)n3)cc2n1[C@@H](C)C(F)(F)F [Example 685] |
| 18.5 nM | C[C@H](O)c1nc2cnc(Nc3ccnc(N4CC[C@H](O)[C@H](F)C4)n3)cc2n1[C@@H](C)C(F)(F)F [Example 686] |
| 107 nM | C[C@@H](O)c1nc2cnc(Nc3ccnc(N4CC[C@@H](O)[C@@H](F)C4)n3)cc2n1[C@H](C)C(F)(F)F [Example 687] |
| 107 nM | C[C@@H](O)c1nc2cnc(Nc3ccnc(N4CC[C@H](O)[C@H](F)C4)n3)cc2n1[C@H](C)C(F)(F)F [Example 688] |
| 230 nM | C[C@H](O)c1nc2cnc(Nc3ccnc(N4CC[C@@H](O)[C@@H](F)C4)n3)cc2n1[C@H](C)C(F)(F)F [Example 689] |
| 387 nM | C[C@H](O)c1nc2cnc(Nc3ccnc(N4CC[C@H](O)[C@H](F)C4)n3)cc2n1[C@H](C)C(F)(F)F [Example 690] |
| 736 nM | CC(C)n1c(CO)nc2cnc(Nc3ccnc(N4C[C@@H]5C[C@H]4CO5)n3)cc21 [Example 691] |
| 140 nM | CC(C)n1c(CO)nc2cnc(Nc3ccnc(N4CC5CC4C5)n3)cc21 [Example 692] |
| 572 nM | CC(C)n1c(CO)nc2cnc(Nc3ccnc(N4CCC5(CC4)CNC(=O)CO5)n3)cc21 [Example 693] |
| 709 nM | O=C1CC(n2c(CO)nc3cnc(Nc4ccnc(-c5cnn(S(=O)(=O)C6CC6)c5)n4)cc32)CN1 (stereo not drawn) [Example 694] |
| 68.8 nM | COCCC(C)(C)n1c(CO)nc2cnc(Nc3ccnc(-c4cnn(S(=O)(=O)C5CC5)c4)n3)cc21 [Example 695] |
| 7.67 nM | CC(CC(F)(F)F)n1c(CO)nc2cnc(Nc3ccnc(-c4cnn(S(=O)(=O)C5CC5)c4)n3)cc21 (stereo not drawn) [Example 696] |
| 16.9 nM | CC1CCC(n2c(CO)nc3cnc(Nc4ccnc(-c5cnn(S(=O)(=O)C6CC6)c5)n4)cc32)C1 (stereo not drawn) [Example 697] |
| 7.02 nM | CC1CC1n1c(CO)nc2cnc(Nc3ccnc(-c4cnn(S(=O)(=O)C5CC5)c4)n3)cc21 (stereo not drawn) [Example 698] |
| 305 nM | CO[C@@H]1CCN(c2nccc(Nc3cc4c(cn3)nc(CO)n4C(C)C)n2)C[C@H]1C [Example 699] |
| 1.65 nM | CCC(C)n1cc(C(=O)NC2COCCOC2)c2cnc(Nc3ccnc(-c4cnn(S(=O)(=O)C5CC5)c4)n3)cc21 (stereo not drawn) [Example 700] |
| 4.4 nM | C[C@H](n1c([C@@H](C)O)nc2cnc(Nc3ccnc(N4C[C@@H](F)[C@@H](O)[C@@H](F)C4)n3)cc21)C(F)(F)F [Example 701] |
| 239 nM | CC(C)n1c(CO)nc2cnc(Nc3ccnc(N4CC[C@H](O)[C@@](C)(F)C4)n3)cc21 [Example 702] |
| 2.5 nM | CCC(C)n1cc(C(=O)NCCO)c2cnc(Nc3ccnc(-c4cnn(S(=O)(=O)C5CC5)c4)n3)cc21 (stereo not drawn) [Example 703] |
| 3.35 nM | CCC(C)n1cc(C(=O)NCC(F)(F)F)c2cnc(Nc3ccnc(-c4cnn(S(=O)(=O)C5CC5)c4)n3)cc21 (stereo not drawn) [Example 704] |
